# Experimental data: the METLIN SMRT retention time set (Domingo-Almenara et al. 2019)
# Test: gradient 5% acetonitrile 3 min, to 50% in 2 min, to 85% in 15 min, held 3 min, 100 µL/min
# Settings: column: Zorbax Extend-C18 2.1 x 50 mm; eluents: water / acetonitrile, 0.1% formic acid
# Outline: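 Pure standards were run in mixtures of ~100 molecules by HPLC coupled to a quadrupole time-of-flight mass spectrometer. The column was a Zorbax Extend-C18 (2.1 × 50 mm, 1.8 μm) at 100 μL/min, with water and acetonitrile each containing 0.1% formic acid, in positive and negative ionization mode. Dead and dwell volumes were 40 μL and 900 μL. Retention time was taken from computationally picked adduct peaks, each manually inspected, with data collected over 3 months.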
row,SMILES,RP-LC retention time [s]
1,O=C(Nc1ccc(F)cc1)C1CCCN(c2nnc3ccc(Cl)cn23)C1 (stereo unspecified),689
2,O=C(CCc1nnc2c3cc(-c4ccccc4)nn3ccn12)N1CCN(C2CCCCC2)CC1,628
3,Cc1ccc(C(=O)NC(C)CCc2ccccc2)cc1NC(=O)C1=CSCCO1 (stereo unspecified),955
4,O=C(Cc1csc2nc(-c3ccccc3)cn12)NC1CCCCCC1,808
5,CCC(=O)N1CCc2cc(C(=O)N3CCCCCC3)ccc21,770
6,Cc1cc(NS(=O)(=O)c2ccc(F)cc2C)n(C2CCS(=O)(=O)C2)n1 (stereo unspecified),753
7,CC(=O)Nc1onc(C)c1-c1ccc(C)c(S(=O)(=O)N2CCN(c3ncccn3)CC2)c1,763
8,COC(=O)c1ccc(C2CC(=O)NC3=C2C(=O)CC(C)(C)C3)cc1 (stereo unspecified),675
9,COc1cccc(NC(=O)N2CCC3(CC2)NC(=O)c2ccc(Cl)cc2N3C)c1,780
10,CCN1C(=O)COc2ccc(-c3csc(NC(=O)c4ccc(OC)c(OC)c4)n3)cc21,943
11,Cc1ccc(CNC(=O)c2c(C)sc3ccn(CC(C)C)c(=O)c23)cc1,999
12,O=C(CCc1ccc2c(c1)CN(S(=O)(=O)c1cccc3nsnc13)CCO2)NC1CC1,756
13,O=C(Cc1c[nH]c2ccccc12)N1CCC(c2noc(C3CC3)n2)C1 (stereo unspecified),744
14,CCOc1ccc(-c2nc(-c3ccc4ncn(CC)c4c3)no2)cc1,829
15,Clc1ccccc1N1CCN(Cc2nnc(-c3ccccc3)o2)CC1,768
16,Cc1noc(C2CN(C(=O)CCC(C)C)CC23CCOCC3)n1 (stereo unspecified),678
17,Cc1nn2c(CNS(=O)(=O)c3ccc(Cl)cc3)c(-c3ccccc3)nc2s1,932
18,Cc1ccccc1Cn1cc(-c2ccncc2)cc1C(=O)NC(C)c1ccccn1 (stereo unspecified),600
19,Clc1ccc(Nc2nc(NCCCn3ccnc3)nc3nc[nH]c23)cc1,536
20,Cn1c(N2CCCC(C(=O)NCCCc3ccccc3)C2)cc(=O)n(C)c1=O (stereo unspecified),736
21,O=C(NC1CCCN(c2ccc(=O)[nH]n2)C1)c1cc2cc(Cl)ccc2[nH]1 (stereo unspecified),743
22,Cc1ccc(S(=O)(=O)N2CCN(c3ccc(-c4ccc(F)cc4)nn3)CC2)s1,870
23,CC1CN(c2ccc(F)cc2)c2nc3c(c(=O)n(CC(=O)O)c(=O)n3C)n2C1 (stereo unspecified),729

row,SMILES,RP-LC retention time [s]
1,O=C(Nc1nc(-c2ccco2)cs1)C1COCC(=O)N1Cc1ccccc1 (stereo unspecified),729
2,O=C(Nc1ccc(O)c(C(=O)O)c1)Oc1ccccc1,801
3,Cc1ccc2[nH]c(C(=O)NCC3CCCO3)cc2c1 (stereo unspecified),776
4,O=C(Cc1cccs1)N1CCc2cc(-c3ccno3)ccc21,919
5,CCOc1ccccc1NC(=O)c1cnn(-c2ccc(Br)cc2)c1,1120
6,CCN(CC)c1ccc(NC(=O)c2nc3nc(C)cc(C(F)F)n3n2)cc1,598
7,Cc1c2c(nn1-c1ccc(SCc3ccccc3Cl)nn1)CCC2,1380
8,Oc1ccc2c3c1OC1C(O)CC[C@@]4(O)[C@@H](C2)N(CC2CCC2)CC[C@]314 (stereo partly specified),619
9,CCOCCCNC(=O)c1ccc2c(c1)NC(=O)C1CCCCN21 (stereo unspecified),686
10,CCCN(C(=O)Nc1cccc(C)c1C)c1nc(-c2ccc(C3CCCCC3)cc2)cs1,619
11,Cc1nc(Nc2ccccc2)sc1C(=O)NC1CCCC1,869
12,CCc1noc(NC(C)=O)c1-c1ccc(OC)c(S(=O)(=O)N2CCCc3ccccc32)c1,879
13,COC(=O)c1cnc2nc(C)ccc2c1NCc1ccccc1,658
14,Cn1ccc2cc(S(=O)(=O)N3CCC(C(=O)NCC4CCCO4)CC3)ccc21 (stereo unspecified),739
15,Cc1ccc(CNC(=O)CC2CCOCC2)o1,663
16,Cn1c(SCC(=O)N2CCC(C(N)=O)CC2)nnc1-c1sc2ncccc2c1N,577
17,COc1cc(CNC(=O)c2nnc(-c3ccc(S(=O)(=O)N(C)C)cc3)o2)cc(OC)c1,846
18,COc1cc(OC)c(C(=O)CCCN2CCCC2)c(OC)c1,666
19,Cc1ccsc1CN1CCC(Cn2c(C)cnc2C)CC1,521
20,Nc1cc(C2CCN(C(=O)c3cccc(F)c3)CC2)no1,658
21,Cc1cccc(NC(=O)c2ncn3c2C(=O)N(C2CC2)C(C)(C(=O)NC2CCCC2)C3)c1C (stereo unspecified),842
22,O=C([C@H]1C[C@@H](F)CN1S(=O)(=O)c1ccc(F)c(Cl)c1)N1CCOCC1,731
23,CC1CCCN(c2ccn3c(=O)n(CC(=O)NCc4ccc(F)cc4)nc3n2)C1 (stereo unspecified),804

row,SMILES,RP-LC retention time [s]
1,O=c1c2cc(-c3ccccc3)nn2ccn1CC(O)c1ccccc1 (stereo unspecified),846
2,COc1ccc(S(=O)(=O)N2CCCC(C(=O)Nc3ccc(F)cc3)C2)cc1OC (stereo unspecified),831
3,Cc1ccc(NC(=O)Nc2ccc(NC(=O)N3CCCC(C(=O)NC(C)C)C3)cc2)cc1 (stereo unspecified),760
4,O=C(N1[C@H]2CC[C@@H]1c1cnc(-c3ccc(F)cc3)nc1C2)C1(c2ccccc2)CC1,1070
5,COC(=O)c1cnc2nc(C)ccc2c1Nc1ccc(OC)cc1,647
6,CCn1cc(S(=O)(=O)Nc2cccc(C)c2C)c2cccnc21,868
7,COc1cc([C@@H]2c3cc4c(cc3[C@H](O)[C@@H](CO)[C@@H]2C(=O)NCc2ccc(F)cc2)OCO4)cc(OC)c1OC,720
8,Cc1nnc(SCC(=O)N2CCN(c3nnnn3-c3ccccc3)CC2)s1,653
9,CCN1C(=O)C2CC3(CCN(C(=O)c4ccoc4)CC3)CN2C1=O (stereo unspecified),628
10,O=C(O)c1ccc(NCc2nc3ccccc3[nH]2)cc1,896
11,CCN(CC)CCNC(=O)CCc1nc2c(C)nn(-c3ccccc3)c2n(C)c1=O,585
12,O=C(O)c1ccc2c(ccn2Cc2ccccc2)c1,843
13,Cc1ccccc1NC(=O)C1CCCN(S(=O)(=O)c2cn(C(C)C)cn2)C1 (stereo unspecified),726
14,CCN(CC)C(=O)c1ccc(-c2nc3cc(NS(=O)(=O)c4ccc(F)c(C)c4)ccc3n2C)cc1,722
15,CN(C)c1ccc(-c2nc3cnccn3c2Nc2cccc(C(N)=O)c2)cc1,609
16,Cc1ccc(CNC(=O)c2c(OCC(C)C)cc(=O)n3c2CCCCC3)o1,786
17,CN(C)c1ccc(C(=O)Nc2cnc(N3CCOCC3)nc2)cc1,729
18,CC1CCCN(c2nccnc2SCC(=O)Nc2ccc(F)cc2Cl)C1 (stereo unspecified),1300
19,CCCn1c(=O)c2c(C(=O)N3CCN(c4ccc(Cl)cc4)CC3)cc(=O)n(CCC)c2n(C)c1=O,1210
20,CCn1cc(-c2ccc(C)cc2)cc1C(=O)NCCCN1CCOCC1,693
21,CC(C)CC(=O)Nc1ccc(-n2cnc(C(=O)N3CC(C)CC(C)C3)c2)nc1 (stereo unspecified),839
22,C=CCN1CCN(c2nc3cc(C(=O)OC)ccc3c(=O)n2-c2ccccc2)CC1,637
23,CCn1cc(CCN2CCN(C(=O)Cc3cccs3)CC2)c2cccnc21,590

row,SMILES,RP-LC retention time [s]
1,Clc1ccc(CSc2nnc(-c3ccc(Br)cc3)o2)cc1,1270
2,O=c1c(S(=O)(=O)N2CCCCCC2)cccn1Cc1ccc(F)cc1,933
3,CCn1c(=O)c(C)nc2cc(-c3noc(-c4ccc(C)cc4)n3)ccc21,1200
4,CC(C)(CO)NCc1ccc(-c2ccccc2F)o1,602
5,Cc1ccccc1S(=O)(=O)N1CCC2(CC1)CC(OCc1ccccc1)CCO2 (stereo unspecified),1210
6,CC1CCCCN1CCNC(=O)C1CCCN(c2cnc3nccnc3c2)C1 (stereo unspecified),570
7,COc1ccc(Cl)cc1NC(=O)c1c(C)oc2c1C1=NCCN1C=N2,674
8,CCOc1ccc(-c2ccc(=O)n(CCc3nc(-c4cccc(OC)c4OC)no3)n2)cc1,952
9,CCC(=O)N1CCc2c(C(=O)N3CCN(c4ccccc4Cl)CC3)cccc21,960
10,Cc1scc2nc(C(=O)NCc3ccc(F)cc3)nc(N(C)C)c12,780
11,COc1ccc(-c2noc(Cc3nnc(-c4ccc(C)c(C)c4)o3)n2)cc1OC,997
12,O=C(Cn1ncccc1=O)Nc1cccc(-c2cn3c(n2)SCC3)c1,530
13,O=C(NCCSc1ncc(-c2ccccc2)[nH]1)NCc1cccs1,596
14,CCCC(=O)N1CCCC(COc2ccc(C(=O)NC(C)C)cc2)C1 (stereo unspecified),784
15,CCCCn1c(=O)c2ccccc2n(Cc2nc(-c3ccc(C)cc3)no2)c1=O,853
16,CCNc1nc(C)cc(N2CCN(S(=O)(=O)c3cccc(Cl)c3)CC2)n1,725
17,O=C(C1=NN(Cc2ccccc2)c2cc(Cl)ccc2S1(=O)=O)N1CCOCC1,864
18,Cc1ccc(-c2nnc(N3CCC(C(=O)NCc4ccc5c(c4)OCO5)CC3)o2)cc1,838
19,CCN(CC)S(=O)(=O)c1cc(-c2nnc(-c3ccccc3Cl)o2)ccc1C,1130
20,COCc1cc(=O)n(CC(=O)Nc2ccc(F)cc2C)c(N)n1,593
21,CCc1cccc(NS(=O)(=O)c2cn(CC(C)C)c3ncccc23)c1,1070
22,O=C(Cn1c(=O)c2cccn2c2ccc(F)cc21)NCC1CCCO1 (stereo unspecified),703
